Results on two molecules are retold here after ChEMBL document CHEMBL5055661, “Cell-Based Drug Discovery: Identification and Optimization of Small Molecules that Reduce c-MYC Protein Levels in Cells” (J Med Chem, 2021).

SMILES strings stand for the structures. pEC50: −log10 of the molar value. Calls of active or inactive are those of the source.

Data set [1] concerns DOHH-2. The experiment in a line: Anticancer activity against human DOHH-2 cells assessed as tumor growth inhibition at 30 mg/kg, po qd measured after 28 days. It is filed as functional. As to conditions: DOHH-2, 672 h, time 28 day, read-out: TGI.
For data set [2], the system named is DOHH-2. The experiment in a line: Reduction in MYC mRNA level in po dosed mouse xenografted with human DOHH-2 cells by qRT-PCR analysis. In kind it is functional, organism-based. As to conditions: dose 15-100 mg/kg.
The nature of data set [3]: Half life in Han Wistar rat at 1 mg/kg, iv by LC-MS/MS analysis. It is filed as ADME, organism-based. As to conditions: in vivo.
A short description of data set [4]: Reduction in cMyc expression in human COLO 320HSR cells incubated for 24 hrs by HTRF assay. It is filed as functional, cell-based.
A short description of data set [5]: Clearance in Han Wistar rat at 1 mg/kg, iv by LC-MS/MS analysis. In kind it is ADME, organism-based. As to conditions: in vivo.
The subject of data set [6] is DOHH-2. The experiment in a line: Anticancer activity against human DOHH-2 cells assessed as tumor growth inhibition at 30 mg/kg, po qd measured after 21 days. In kind it is functional. As to conditions: DOHH-2, 504 h, time 21 day, read-out: TGI.
Data set [7] relates to DOHH-2. The experiment in a line: Anticancer activity against human DOHH-2 cells assessed as reduction in MYC mRNA expression in tumor at 30 mg/kg, po qd measured after 28 days by qRT-PCR analysis. As to conditions: time 28.0 day. It is filed as functional, organism-based.
Data set [8] is described as follows: Plasma protein binding in CD1 mouse at 5.1 mg/kg, po by LC-MS/MS analysis. In kind it is ADME, organism-based. As to conditions: read-out: PPB.
The nature of data set [9]: Half life in CD1 mouse at 0.49 mg/kg, iv by LC-MS/MS analysis. As to conditions: in vivo. In kind it is ADME, organism-based.
The next data set has as its system Burkitts lymphoma cell. The experiment in a line: Growth inhibition of MYC-translocated human Burkitts lymphoma cells measured after 6 days by CellTiterGlo-assay. As to conditions: time 6.0 day. It is filed as functional. (In general: ATP-based viability assays read luminescence as a measure of living cells.)
Data set [10] in a line: Plasma protein binding in Han Wistar rat at 2.1 mg/kg, po by LC-MS/MS analysis. In kind it is ADME, organism-based. As to conditions: read-out: PPB.
Data set [11] is described as follows: Volume of distribution at steady state in Han Wistar rat at 1 mg/kg, iv by LC-MS/MS analysis. As to conditions: in vivo, read-out: Vdss. In kind it is ADME, organism-based.
Data set [12] in a line: Clearance in CD1 mouse at 0.5 mg/kg, iv by LC-MS/MS analysis. In kind it is ADME, organism-based. As to conditions: in vivo.
Data set [13] is described as follows: Permeability of the compound across artificial membrane by AMP assay. In kind it is ADME. As to conditions: PAMPA; read-out: permeability. For orientation: The PAMPA barrier holds no transporters, so it reflects passive diffusion.
The nature of data set [14]: AUC (0 to inf) in Han Wistar rat at 2.1 mg/kg, po by LC-MS/MS analysis. It is filed as ADME, organism-based. As to conditions: in vivo. More on the design: time infinity, dose 2.1 mg/kg, route po.
Data set [15] in a line: Volume of distribution at steady state in CD1 mouse at 0.5 mg/kg, iv by LC-MS/MS analysis. It is filed as ADME, organism-based. As to conditions: in vivo, read-out: Vdss.
Data set [16] can be described thus: Volume of distribution at steady state in CD1 mouse at 0.49 mg/kg, iv by LC-MS/MS analysis. It is filed as ADME, organism-based. As to conditions: in vivo, read-out: Vdss.
A short description of data set [17]: Oral bioavailability in Han Wistar rat at 2.1 mg/kg by LC-MS/MS analysis. As to conditions: in vivo. In kind it is ADME, organism-based.
Data set [18] can be described thus: Half life in CD1 mouse at 0.5 mg/kg, iv by LC-MS/MS analysis. It is filed as ADME, organism-based. As to conditions: in vivo.
The subject of another data set is Mus musculus. The data set can be described thus: Toxicity in mouse assessed as decrease in body weight at 30 mg/kg, po qd measured after 28 days. It is filed as organism-based. As to conditions: in vivo, 672 h, time 28 day.
A short description of data set [19]: AUC (0 to inf) in CD1 mouse at 5.1 mg/kg, po by LC-MS/MS analysis. As to conditions: in vivo. More on the design: time infinity, dose 5.1 mg/kg, route po. It is filed as ADME, organism-based.
Data set [20] in a line: Oral bioavailability in CD1 mouse at 5.1 mg/kg by LC-MS/MS analysis. It is filed as ADME, organism-based. As to conditions: in vivo.
Data set [21] in a line: Clearance in CD1 mouse at 0.49 mg/kg, iv by LC-MS/MS analysis. It is filed as ADME, organism-based. As to conditions: in vivo.
In data set [22] the test system is DOHH-2. The experiment in a line: Anticancer activity against human DOHH-2 cells assessed as tumor growth inhibition at 45 mg/kg, po qd measured after 21 days. As to conditions: DOHH-2, 504 h, time 21 day, read-out: TGI. It is filed as functional.
In data set [23] the test system is DOHH-2. The data set can be described thus: Decrease in c-MYC protein level in human DOHH-2 cells incubated for 6 hrs by Western blot analysis. In kind it is functional, cell-based. (Immunoblotting shows a protein as a band on a membrane.)
Data set [24] can be described thus: AUC (0 to inf) in CD1 mouse at 5 mg/kg, po by LC-MS/MS analysis. In kind it is ADME, organism-based. On the set-up: time infinity, dose 5 mg/kg, route po. As to conditions: in vivo.
The nature of data set [25]: AUC (0 to inf) in Han Wistar rat at 2 mg/kg, po by LC-MS/MS analysis. As to conditions: in vivo. It is filed as ADME, organism-based. On the set-up: time infinity, dose 2 mg/kg, route po.
The nature of data set [26]: Plasma protein binding in CD1 mouse at 5 mg/kg, po by LC-MS/MS analysis. As to conditions: read-out: PPB (converted). It is filed as ADME, organism-based.
The nature of data set [27]: Oral bioavailability in Han Wistar rat at 2 mg/kg by LC-MS/MS analysis. As to conditions: in vivo. It is filed as ADME, organism-based.
Data set [28] can be described thus: Cmax in CD1 mouse at 5 mg/kg, po by LC-MS/MS analysis. It is filed as ADME, organism-based. More on the design: dose 5 mg/kg, route po. As to conditions: in vivo.
Data set [29] in a line: Clearance in CD1 mouse at 0.51 mg/kg, iv by LC-MS/MS analysis. It is filed as ADME, organism-based. As to conditions: in vivo.
A short description of data set [30]: Volume of distribution at steady state in CD1 mouse at 0.51 mg/kg, iv by LC-MS/MS analysis. In kind it is ADME, organism-based. As to conditions: in vivo, read-out: Vdss.
Data set [31] is described as follows: Cmax in Han Wistar rat at 2 mg/kg, po by LC-MS/MS analysis. In kind it is ADME, organism-based. On the set-up: dose 2 mg/kg, route po. As to conditions: in vivo.
The nature of data set [32]: Plasma protein binding in Han Wistar rat at 2 mg/kg, po by LC-MS/MS analysis. It is filed as ADME, organism-based. As to conditions: read-out: PPB (converted).
Data set [33] is described as follows: Oral bioavailability in CD1 mouse at 5 mg/kg by LC-MS/MS analysis. As to conditions: in vivo. In kind it is ADME, organism-based.
A short description of data set [34]: Half life in CD1 mouse at 0.51 mg/kg, iv by LC-MS/MS analysis. It is filed as ADME, organism-based. As to conditions: in vivo.

Regarding `CCNC(=O)c1cc(OC)c2c(c1)nc(-c1ccc(N3[C@@H](C)CC[C@@H]3C)nc1)n2C[C@@H]1CN(C)CCO1`, the inhibition in vivo at 30 mg/kg was found to be 82% with DOHH-2 [1] and 58% in the data set with DOHH-2 [6]. For the same molecule, the outcome in the data set with DOHH-2 [2], in the data set on DOHH-2 [7] and in the data set on DOHH-2 [23] was Active. In addition, the half-life (in general, the time needed for the level to fall by half in the phase considered) in [3] was 3.6 h; in [9] it was 0.75 h; in data set [18] it was 1.9 h. Further, the pEC50 – broadly, the negative decadic logarithm of the EC50, by convention in mol/L – in data set [4] was 7.10. Besides, the clearance – broadly, a measure of how efficiently the substance is removed, as volume per time – was found to be 22 mL/min/kg in [5], 26 mL/min/kg in data set [12] and 25 mL/min/kg in data set [21]. Further, the fraction unbound worked out at 0.01 in [8] and 0.09 in data set [10]. Also, in the data set on Burkitts lymphoma cell, the “growth inhibition (GI)” value was “Active”. In addition, the results for the Vd in [11], in data set [15] and in data set [16] were 2.6 L/kg, 3.4 L/kg and 0.73 L/kg, respectively. For the same molecule, the Papp in [13] stood at 20.5 ×10⁻⁶ cm/s. The values for the AUC(0-inf) in data set [14] and in data set [19] were 669 ng·h/mL and 1720 ng·h/mL, respectively. The bioavailability (usually dose-corrected exposure relative to a reference, in per cent) in [17] worked out at 40%; in [20], 35%. Moreover, the Activity entry in the data set with Mus musculus is “Non-Toxic”. In addition, in the data set on DOHH-2 [22], the inhibition in vivo at 45 mg/kg was determined as 89%.
`COc1cc(C(N)=O)c(F)c2nc(-c3ccc(N4CCC[C@@H]4C)nc3)n(C[C@@H]3CN(C)CCO3)c12`: the half-life is 6.4 h in [3] and 0.55 h in data set [34]. Moreover, the AUC(0-inf) – broadly, the area under the concentration-time curve extrapolated to infinity – in data set [24] came out at 1240 ng·h/mL; in [25] it was 4300 ng·h/mL. Moreover, the negative-log EC50 (pEC50) in data set [4] was 7.20. The values for the clearance in [5] and in [29] were 14 mL/min/kg and 24 mL/min/kg, respectively. The fraction unbound in [26] was 0.03; in data set [32] it was 0.04. In addition, the bioavailability in data set [27] turned out to be 100%; in data set [33] it was 43%. Also, the Cmax (as a rule, the maximum level reached in the sampled fluid or tissue) in data set [28] is 380 ng/mL; in data set [31] it was 500 ng/mL. The Vd in data set [11] turned out to be 2.5 L/kg; in [30] it was 0.88 L/kg.
